Assay results: patent US10568933B2, “Beta-casein A2 and blood glucose levels” (THE A2 MILK COMPANY LIMITED, priority 2013, dated 2020)

Test system: SH-SY5Y cells
Assay: Effect of BCM-7 on DNA methylation levels (MBD-seq)
Type: cell-based, human
Details: 1 μM, 4 hours
Experimental: Shifts in global DNA methylation patterns induced by BCM-7 were investigated using methyl-CpG binding domain (MBD) protein-enriched genome sequencing (MBD-seq) as described previously (Trivedi M., et al., Mol. Pharm. 2014), whereas mRNA translation microarray data was obtained using an Agilent V3 microarray chip, from non-treated control SH-SY5Y cells and cells treated for 4 hours with 1 μM BCM-7.
Genomic DNA was extracted from samples using the Easy DNA kit (Invitrogen K1800-01) using the appropriate protocol for cell lines. Fragmentation was performed on a Covaris S2 ultrasonicator using the following settings: duty cycle 10%, intensity 5, 200 cycles per burst during 200 sec. Fragments were obtained having an average length of 200 bp. The power mode is frequency sweeping, temperature 6-8° C., water level 12. […] DNA with an input from […] was analysed on the Agilent 2100 using a DNA 1000 chip. […] The concentrations of fragmented and captured DNA were determined on a Fluostar Optima plate reader with the Quant-iT PicoGreen dsDNA Assay Kit (Invitrogen P7589) at 480/520 nm. […]
The Illumina library amplification index protocol was used with the following alterations: 22 μl DNA was used and performed 21 cycles run. […] 1 μl was applied to an Agilent 2100 HS DNA chip and the concentration was determined by smear analysis on the Agilent 2100. […]

## beta-casomorphin-7 [BCM-7]
  Epigenetic status (DNA methylation) of genes responsible for glucose metabolism, synthesis and glucose homeostasis: altered
